{"source": "patent US10881662B2", "about": "“Intracellular ATP enhancer” (StaGen Co., Ltd., priority 2016, dated 2021)", "key": {"[1]": {"system": "patients with chronic stable angina", "conditions": "high-dose administration; cited from earlier work"}, "[2]": {"system": "serum uric acid", "experiment": "Test Example 1: serum uric acid value (uricase-peroxidase method)", "assay_type": "in vivo, human", "description": "For a clinical chemistry automatic analyzer, a dry clinical chemistry analysis measuring unit manufactured by ARKRAY, Inc. was used, and the serum uric acid value was measured by using the uricase-peroxidase method.\nThe following administration test was conducted for 16 Japanese healthy adult males, one subject in Phase I and 15 subjects in Phase II divided into Group A to Group E with 3 subjects each. […]\nAfter Phase I, the following contents were administered to three subjects in each group: […]\n(§1) Group E: febuxostat 30 mg twice a day for 14 days."}, "[3]": {"system": "urinary uric acid", "experiment": "Test Example 1: urinary uric acid concentration/creatinine concentration", "assay_type": "in vivo, human", "conditions": "Week 0 to Week 2", "description": "Since the urinary uric acid concentration varies with urine volume, a urinary uric acid amount was evaluated by using a urinary uric acid/creatinine value acquired by dividing by urinary creatinine concentration. The measurement method of the uric acid value was the same as that for the serum uric acid value.\n(§2) The following administration test was conducted for 16 Japanese healthy adult males, one subject in Phase I and 15 subjects in Phase II divided into Group A to Group E with 3 subjects each.\n(§3) After Phase I, the following contents were administered to three subjects in each group:\n(§4) Group A: febuxostat 20 mg twice a day for 14 days;\n(§5) Group B: inosine 500 mg of twice a day for 14 days;\n(§6) Group C: febuxostat 20 mg and inosine 500 mg twice a day for 14 days;\n(§7) Group D: febuxostat 20 mg and inosine 1000 mg twice a day for 14 days; and\nas §1"}, "[4]": {"system": "blood ATP", "experiment": "Test Example 1: blood purine concentrations by HPLC, ATP", "assay_type": "in vivo, human", "conditions": "Week 0 to Week 2", "description": "(§8) Various purines in peripheral blood were measured according to the Reference. Briefly, peripheral blood was collected with EDTA, 500 μL mixed with 500 μL ice cold 8% PCA, immediately vortexed for five seconds, and centrifuged at 12,000×g for 10 minutes at 4° C., and the supernatant was stored at −80° C. The processed sample was then dissolved, with 40 μL of 2M K2CO3 in 6 M KOH added to 650 μL of the solution to simultaneously precipitate the PCA and neutralize the solution. After this solution was centrifuged at 12,000×g for 10 minutes at 4° C., 160 μL of a mobile phase was added to 40 μL of the supernatant and applied to HPLC. The conditions of HPLC were also set according to the Reference. The amounts of purines are expressed in molar quantity contained in 1 L of whole blood.\n(§9) Coolen E J, Arts I C, Swennen E L, Bast A, Stuart M A, Dagnelie P C. Simultaneous determination of adenosine triphosphate and its metabolites in human whole blood by RP-HPLC and UV-detection. J Chromatogr B Analyt Technol Biomed Life Sci. 2008 Mar. 15; 864(1-2): 43-51.\nas §2, §3, §4, §5, §6, §7, §1"}, "[5]": {"system": "blood Hx (hypoxanthine)", "experiment": "Test Example 1: blood purine concentrations by HPLC, hypoxanthine", "assay_type": "in vivo, human", "conditions": "Week 0 to Week 2", "description": "as §8, §9, §2, §3, §4, §5, §6, §7, §1"}, "[6]": {"system": "blood X (xanthine)", "experiment": "Test Example 1: blood purine concentrations by HPLC, xanthine", "assay_type": "in vivo, human", "conditions": "Week 0 to Week 2", "description": "as §8, §9, §2, §3, §4, §5, §6, §7, §1"}, "[7]": {"system": "urinary Hx", "experiment": "Test Example 1: urinary purine concentrations, hypoxanthine", "assay_type": "in vivo, human", "conditions": "Week 0 to Week 2, FIG. 5; single administration or combined use, doses not distinguished", "description": "as §8\nThe purine concentrations were measured by the same method as in (4).\nas §2, §3, §4, §5, §6\nGroup D: febuxostat 20 mg and inosine 1000 mg twice a day for 14 days; and […]"}, "[8]": {"system": "urinary X", "experiment": "Test Example 1: urinary purine concentrations, xanthine", "assay_type": "in vivo, human", "conditions": "for change in urinary X concentration: Week 0 to Week 2, FIG. 5, single administration or combined use, doses not distinguished"}, "[9]": {"system": "model mouse of amyotrophic lateral sclerosis", "conditions": "model mouse of ALS; cited from earlier work"}, "[10]": {"system": "erythrocytes with low ATP", "conditions": "erythrocytes left at low temperature for 20 to 30 days, inosine added, left to stand for 1 hour; cited from earlier work"}, "[11]": {"system": "Parkinson's disease", "conditions": "administration of inosine; cited from earlier work"}, "[12]": {"system": "multiple sclerosis", "conditions": "administration of inosine; cited from earlier work"}, "[13]": {"conditions": "Group E: febuxostat 30 mg twice a day for 14 days"}, "[14]": {"conditions": "Groups A-C: febuxostat 20 mg and/or inosine 500 mg twice a day for 14 days"}, "[15]": {"conditions": "Group E: febuxostat 60 mg/day alone for 14 days"}}, "data": [{"molecule": "Oc1ncnc2[nH]ncc12", "note": "[allopurinol]", "values": [{"measurement": "symptoms of chronic stable angina", "setting": "[1]", "value": "suppressed"}]}, {"molecule": "Cc1nc(-c2ccc(OCC(C)C)c(C#N)c2)sc1C(=O)O", "note": "[febuxostat]", "values": [{"measurement": "serum uric acid value, lowest observed", "setting": "[2]; Phase II Group E: febuxostat 30 mg twice a day (60 mg/day) for 14 days", "value": "less than 2 mg/dL"}, {"measurement": "serum uric acid value reduced by", "setting": "[2]; Phase II Group E: febuxostat 30 mg twice a day for 14 days", "value": 3.93, "unit": "mg/dL"}, {"measurement": "serum uric acid value reduced by", "setting": "[2]; Phase II Groups A and C: febuxostat 20 mg alone or with inosine 500 mg, twice a day for 14 days", "value": 2.53, "unit": "mg/dL"}, {"measurement": "serum uric acid value, not reduced to less than", "setting": "[2]; Phase II, any of the administration examples of 40 mg/day of febuxostat, 14 days", "value": "≥ 2", "unit": "mg/dL"}, {"measurement": "change in urinary uric acid/creatinine", "setting": "[3]; [13]", "value": "reduced"}, {"measurement": "change in urinary uric acid/creatinine", "setting": "[3]; [14]", "value": "reduced"}, {"measurement": "change in blood ATP concentration", "setting": "[4]; [13]", "value": "No certain tendency was observed"}, {"measurement": "change in blood ATP concentration", "setting": "[4]; [14]", "value": "not changed"}, {"measurement": "change in blood Hx (hypoxanthine) concentration", "setting": "[5]; [15]", "value": "slight rise"}, {"measurement": "change in blood Hx (hypoxanthine) concentration", "setting": "[5]; [14]", "value": "unchanged"}, {"measurement": "change in blood X (xanthine) concentration", "setting": "[6]; [15]", "value": "rise"}, {"measurement": "change in blood X (xanthine) concentration", "setting": "[6]; [14]", "value": "significantly increased"}, {"measurement": "change in urinary Hx concentration", "setting": "[7]", "value": "moderate rise"}, {"measurement": "maximum concentration of urinary X", "setting": "[8]; [13]", "value": 867.7, "unit": "µM"}, {"measurement": "maximum concentration of urinary X", "setting": "[8]; [14]", "value": 556.0, "unit": "µM"}, {"measurement": "change in urinary X concentration", "setting": "[8]", "value": "significantly increased"}, {"measurement": "disease progression of amyotrophic lateral sclerosis", "setting": "[9]", "value": "inhibits disease progression"}]}, {"molecule": "OC[C@H]1O[C@@H](n2cnc3c(O)ncnc32)[C@H](O)[C@@H]1O", "note": "[inosine]", "values": [{"measurement": "serum uric acid value increase due to inosine in the presence of febuxostat", "setting": "[2]; 1 g/day inosine in the presence of 40 mg/day of febuxostat (Group C versus Group A)", "value": 0.3, "unit": "mg/dL"}, {"measurement": "serum uric acid value increase due to inosine in the presence of febuxostat", "setting": "[2]; 2 g/day inosine in the presence of 40 mg/day of febuxostat (Group D versus Group A)", "value": 1.06, "unit": "mg/dL"}, {"measurement": "serum uric acid value raised by, on average", "setting": "[2]; Phase II Group B: inosine 500 mg twice a day (1 g per day) for 14 days, without febuxostat", "value": 2.57, "unit": "mg/dL"}, {"measurement": "serum uric acid value, highest observed (up to)", "setting": "[2]; Phase II Group B: inosine 500 mg twice a day for 14 days", "value": "up to 8.1 mg/dL"}, {"measurement": "change in urinary uric acid/creatinine", "setting": "[3]; [14]", "value": "significantly increased"}, {"measurement": "change in blood ATP concentration", "setting": "[4]; [14]", "value": "not changed"}, {"measurement": "change in blood Hx (hypoxanthine) concentration", "setting": "[5]; [14]", "value": "neither Hx nor X changed"}, {"measurement": "change in blood X (xanthine) concentration", "setting": "[6]; [14]", "value": "neither Hx nor X changed"}, {"measurement": "change in urinary Hx concentration", "setting": "[7]", "value": "no rise"}, {"measurement": "maximum concentration of urinary X", "setting": "[8]; [14]", "value": 61.9, "unit": "µM"}, {"measurement": "change in urinary X concentration", "setting": "[8]", "value": "no rise"}, {"measurement": "ATP in erythrocytes", "setting": "[10]", "value": "ATP increased"}, {"measurement": "symptoms of Parkinson's disease", "setting": "[11]", "value": "alleviates symptoms"}, {"measurement": "symptoms of multiple sclerosis", "setting": "[12]", "value": "alleviates symptoms"}]}]}
